“Also recorded” adds a separate entry of the source.
Molecular target: T1, SHIP1 enzyme (Mus musculus, UniProt Q9ES52)
T1 construct: Full length, wild-type SHIP1 enzyme (wt); made in house; host or cells: 293T cells, transient transfection with pME18S-His-SHIP
T1 sequence (Q9ES52 1-1191): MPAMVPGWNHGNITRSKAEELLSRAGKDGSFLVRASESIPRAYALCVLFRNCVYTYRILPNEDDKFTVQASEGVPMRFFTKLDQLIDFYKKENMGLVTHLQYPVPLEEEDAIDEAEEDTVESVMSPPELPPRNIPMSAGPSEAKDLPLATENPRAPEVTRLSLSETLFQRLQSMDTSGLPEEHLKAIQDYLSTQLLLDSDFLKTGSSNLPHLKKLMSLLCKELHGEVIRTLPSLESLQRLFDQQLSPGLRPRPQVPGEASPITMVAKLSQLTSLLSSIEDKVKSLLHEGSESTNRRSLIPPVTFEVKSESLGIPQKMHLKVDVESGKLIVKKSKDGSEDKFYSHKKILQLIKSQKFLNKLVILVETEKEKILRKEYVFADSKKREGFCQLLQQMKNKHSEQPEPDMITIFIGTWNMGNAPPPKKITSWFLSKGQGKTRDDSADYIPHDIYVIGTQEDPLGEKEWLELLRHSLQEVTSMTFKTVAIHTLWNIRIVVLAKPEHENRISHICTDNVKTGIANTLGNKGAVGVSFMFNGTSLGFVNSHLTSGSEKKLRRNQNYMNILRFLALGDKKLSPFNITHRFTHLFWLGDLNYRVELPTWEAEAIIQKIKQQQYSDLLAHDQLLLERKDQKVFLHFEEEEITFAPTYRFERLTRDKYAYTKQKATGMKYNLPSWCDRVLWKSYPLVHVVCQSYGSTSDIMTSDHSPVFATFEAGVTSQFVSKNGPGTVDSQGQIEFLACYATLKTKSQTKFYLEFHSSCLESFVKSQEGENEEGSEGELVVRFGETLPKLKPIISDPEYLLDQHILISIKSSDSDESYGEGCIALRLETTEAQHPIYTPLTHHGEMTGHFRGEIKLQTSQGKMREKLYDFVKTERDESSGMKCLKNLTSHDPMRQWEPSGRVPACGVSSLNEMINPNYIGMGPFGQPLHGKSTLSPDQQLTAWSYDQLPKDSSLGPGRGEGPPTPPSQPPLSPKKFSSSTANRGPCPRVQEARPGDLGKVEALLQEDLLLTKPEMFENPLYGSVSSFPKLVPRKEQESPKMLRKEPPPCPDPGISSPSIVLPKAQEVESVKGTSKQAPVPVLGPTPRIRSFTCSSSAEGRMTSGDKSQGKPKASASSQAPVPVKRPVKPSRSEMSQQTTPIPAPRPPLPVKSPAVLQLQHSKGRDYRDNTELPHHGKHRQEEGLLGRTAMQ
Assay: In vitro SHIP enzyme assay, wild-type SHIP1
Assay type: biochemical
Conditions: for SHIP1 enzyme activity in vitro (activation): FIG. 1A / 3B; for activation of wild-type SHIP1 enzyme by allosteric activators: PI-3,4-P2 20 μM, AQX-MN100 80 μg/mL=250 μM, 30 μM IP4, FIG. 4B
From the text: Production of recombinant SHIP1 enzyme and SHIP1 C2 and PH domains: Recombinant, N-terminal His6 tagged SHIP1 enzyme was expressed in mammalian 293T cells by transient transfection with pME18S-His-SHIP plasmid and purified to >95% homogeneity by Nichelating bead chromatography (Qiagen, Mississauga, Ontario) as assessed by Coomassie Blue visualization of sodium dodecyl sulfate-polyacrylamide gel electrophoresis (SDS-PAGE) separated material. Recombinant SHIP1 C2 domain (amino acid residues 725 to 863) or SHIP1 PH domain (amino acid residues 984-1319) were expressed in E. coli transformed with a pET28C expression vector constructed as described herein. Cultures were induced overnight with 1 mM IPTG, and protein purified from the cell lysates by Ni-chelating bead chromatography was >95% pure by SDS-PAGE analysis.
In vitro SHIP enzyme assay. The SHIP enzyme assay was performed in 96-well microtitre plates with 10 ng of enzyme/well in a total volume of 25 μL of 20 mM Tris HCl, pH 7.5 and 10 mM MgCl2. […] The reaction was allowed to proceed for 20 min at 37° C. and the amount of inorganic phosphate released assessed by the addition of Malachite Green reagent followed by an absorbance measurement at 650 nm (15). SHIP2 enzyme was purchased from Echelon Biosciences (Salt Lake City, Utah) and an equivalent amount of inositol phosphatase activity was used in the in vitro enzyme assay. Enzyme data are expressed as the mean of triplicates+/−SEM. Experiments were performed at least 3 times.

| activation of wild-type SHIP1 enzyme by allosteric activators (listed as PI(3,4)P2) | enhancement of SHIP1 enzyme activity (% change relative to vehicle control, 2 μM final concentration, FIGS. 8A-B) [%] | Compound | activation of SHIP1 relative to Pelorol (40 μg/mL, FIG. 1A) [fold] | SHIP1 enzyme activity in vitro (activation) | activation of wild-type SHIP1 enzyme by allosteric activators |
| --- | --- | --- | --- | --- | --- |
|  |  | Cc1cc(O)c(O)c2c1[C@]1(C)CC[C@H]3C(C)(C)CCC[C@]3(C)[C@H]1C2 [AQX-016A] | 3 | increases SHIN enzyme activity in vitro and in vivo |  |
| enhanced |  | phosphatidylinositol-3,4-bisphosphate [PI-3,4-P2, reference compound] |  |  | activated SHIP to the same extent as AQX-MN100 |
|  | ~500 | Cc1cc(O)cc2c1[C@]1(C)CC[C@H]3C(C)(C)CCC[C@]3(C)[C@H]1C2 [AQX-MN100] |  | enhanced SHIP1 enzyme activity in vitro; also recorded: activates SHIP enzyme activity in vitro | activated SHIP to the same extent; also recorded: enhanced |
